Data taken from patent US8269010B2, “3-amino-pyridine derivatives for the treatment of metabolic disorders” (Piramal Healthcare Limited, priority 2006, dated 2012).

Key:
[1] = tested on: insulin resistant adipocytes (3T3 L1); experiment: In vitro model exhibiting insulin resistance (IR assay): 14C-2-deoxyglucose uptake; type: cell-based; conditions: glucose uptake; for fold induction at 10 µM: Mus musculus, dexamethasone-induced insulin resistant 3T3 L1 adipocytes, test compound 10 μM/mL, vehicle = 1.0, cut off 1.50 fold, read-out: Fold activity (fold activity over vehicle); for % of Rosiglitazone (comparison with Rosiglitazone): insulin resistant 3T3 L1 adipocytes, test compound 10 μM vs Rosiglitazone 0.1 μM
Description: The assay was designed as in the reference, British Journal of Pharmacology, 130, 351-58, 2000, the disclosure of which is incorporated by reference for the teaching of the assay. The solution of test compound (10 μM/mL) was prepared in DMSO. […] Differentiation into adipocytes was induced by the known methods as described below. (See, also, J. Biol. […] 3T3 L1 fibroblasts were seeded in 24- or 6-well plates at a density of 0.5−2×10^4 cells/well and were allowed to reach maximal confluency. The confluent fibroblasts were exposed to culture medium for 2 days. […] The mature adipocytes were exposed to dexamethasone, 100 nM added in ethanol, in culture medium and incubated for 2 days. […] The test compound was also present during this period. After 3-4 hours, the medium was aspirated and replaced with Kreb's Ringer phosphate (KRP) buffer at pH 7.4 and with human/porcine insulin, 200 nM. The cells were incubated for 30 minutes at 37° C. […] After exactly 5 minutes, the plates were transferred to ice trays and medium was rapidly aspirated. The cell layer was washed twice with ice-cold phosphate buffered saline, (PBS), pH 7.4. […] Non-specific glucose uptake was assayed in wells exposed to cytochalasin B, inhibitor of glucose transport. […] Statistical analysis was performed using unpaired t-test.

Mouse PPARγ = molecular target: T1, Mouse PPARγ (Mus musculus, UniProt P37238); experiment: Mouse PPARγ assay (TransAM PPARγ ELISA, 3T3-L1 fibroblasts); type: cell-based; conditions: test compound 50 μM, 72 hrs
T1 construct: endogenous in cells; host or cells: 3T3-L1 fibroblasts
T1 sequence (P37238 1-505): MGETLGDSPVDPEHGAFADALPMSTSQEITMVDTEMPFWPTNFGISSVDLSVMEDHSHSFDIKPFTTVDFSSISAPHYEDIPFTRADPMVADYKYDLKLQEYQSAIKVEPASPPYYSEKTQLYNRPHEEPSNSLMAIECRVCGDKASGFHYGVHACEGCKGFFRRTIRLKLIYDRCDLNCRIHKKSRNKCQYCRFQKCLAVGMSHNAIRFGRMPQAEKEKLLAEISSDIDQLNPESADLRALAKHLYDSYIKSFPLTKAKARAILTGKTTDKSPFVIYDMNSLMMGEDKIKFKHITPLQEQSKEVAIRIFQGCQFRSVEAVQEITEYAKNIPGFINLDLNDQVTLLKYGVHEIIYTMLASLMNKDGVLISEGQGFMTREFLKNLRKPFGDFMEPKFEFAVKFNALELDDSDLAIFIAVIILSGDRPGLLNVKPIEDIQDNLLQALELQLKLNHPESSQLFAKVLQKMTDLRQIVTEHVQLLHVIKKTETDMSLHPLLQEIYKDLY
Description: The assay was designed as in the reference, Blood, 104(5), 1361-8, 2004, the disclosure of which is incorporated by reference for the teaching of the assay.
3T3-L1 fibroblasts were seeded in 6-well plates at a density of 4×10^4 cells/well and cultured in DMEM containing 10% calf serum. After 4-5 days, when the cells become confluent, each of test compound was added (from a 20 mM stock in DMSO) to the final concentration of 50 μM in DMEM supplemented with 10% FCS. […] The plates were incubated for 72 hrs at 37° C. in a CO2 incubator with fresh medium containing test substances added after first 48 hrs. After 72 hrs, the medium was removed; the cell layer was washed and processed for the PPARγ assay as per the instruction of the manufacturer (Active Motif, North America, California, USA). PPARγ activation was determined using 96-well ELISA assay as per the instruction manual (TransAM PPARγ. Active Motif, Cat 0.40196). Assay Readout was absorbance output from spectrophotometer for the mouse PPARγ assay. Luminescence data output was recorded for the human PPARγ assay.

[2] = tested on: genetically diabetic db/db BL/6J mice; experiment: Screening in db/db BL/6J mice: reduction of plasma glucose levels; type: in vivo; conditions: 150 mpk od, 10 days
Description: The protocol was designed as in references. • 1.
The screening of compounds was based on their ability to reduce the plasma glucose levels in genetically diabetic db/db BL/6J mice.
Male db/db mice (obtained from the Animal House of Nicholas Piramal Research Centre, Goregaon, Mumbai, India) were used for this study (body weight in the range of 30-40 g and age is 6-8 weeks) and were kept eight per cage in individually ventilated cages at controlled temperature (22±1° C.) and humidity (45±5%). Food and water were provided ad libitum during their laboratory stay, except for four hours fasting prior to blood sample collection. 12 hours light and dark cycle was followed during the whole study period.
After 4 hours fasting blood samples were collected from mice. Mice showing plasma glucose levels between 300 to 500 mg/dl were divided in groups (8-10 per group) such that the mean plasma glucose levels and variation within the group, for each group, is nearly same. After grouping, mice in respective groups received treatment with 0.5% CMC vehicle, standard compound or test compounds for 10 days.
After 4 hours fasting, mice were anaesthetized using isoflurane (inhalation anesthetic), and blood samples were collected through the retro orbital plexus. Collected blood samples were centrifuged at 7000 rpm for 10 minutes at 4° C.; Separated plasma was used for estimation of plasma glucose using diagnostic kits (Diasys, Germany). Plasma glucose levels of treated groups were normalized with control group using the following formula, which accounted for the changes in control group.
Formula used for normalization was *:{1−[…]}×100.

| SMILES | fold induction at 10 µM [1] | % of Rosiglitazone (comparison with Rosiglitazone) [1] [%] | PPARγ activity (% of rosiglitazone) (Mouse PPARγ) [%] | Normalization with control (plasma glucose) [2] |
| --- | --- | --- | --- | --- |
| O=S(=O)(Nc1cnc(Oc2ccc3ncccc3c2)c(Cl)c1)c1ccc(F)cc1F [Example 48, N-(5-Chloro-6-(quinolin-6-yloxy)pyridin-3-yl)-2,4-difluorobenzenesulfonamide] | 1.82 ± 0.13 | 36.7 ± 7.3 | – | – |
| O=S(=O)(Nc1cnc(Oc2cc3ccccc3cn2)c(Cl)c1)c1ccc(Cl)c(Cl)c1 [Example 17, 3,4-Dichloro-N-(5-chloro-6-(isoquinolin-3-yloxy)pyridin-3-yl)benzenesulfonamide] | 1.26 ± 0.02 | 21.20 ± 1.5 | 12.57 | – |
| N#Cc1ccc(S(=O)(=O)Nc2cnc(Oc3cc4ccccc4cn3)c(Cl)c2)cc1 [Example 5, N-(5-Chloro-6-(isoquinolin-3-yloxy)pyridin-3-yl)-4-cyanobenzenesulfonamide] | 2.41 ± 0.12 | 55.1 ± 4.8 | – | – |
| COc1ccc(S(=O)(=O)Nc2cnc(Oc3cc4ccccc4cn3)c(Cl)c2)cc1 [Example 24, N-(5-Chloro-6-(isoquinolin-3-yloxy)pyridin-3-yl)-4-methoxybenzenesulfonamide] | 1.8 ± 0.32 | 46.2 ± 23.8 | – | Inactive |
| Cc1ccc(S(=O)(=O)Nc2cnc(Oc3cc4ccccc4cn3)c(Cl)c2)cc1Cl [Example 3, 3-Chloro-N-(5-chloro-6-(isoquinolin-3-yloxy)pyridin-3-yl)-4-methylbenzenesulfonamide] | 2.3 ± 0.16 | 52 ± 6.5 | – | – |
| O=S(=O)(c1ccc(Cl)cc1Cl)N(c1cnc(Oc2cnc3ccccc3c2)c(Cl)c1)S(=O)(=O)c1ccc(Cl)cc1Cl [Example 45, 2,4-Dichloro-N-[(2,4-dichlorophenyl)sulfonyl]-N-[5-chloro-6-(quinolin-3-yloxy)pyridin-3-yl]-benzenesulfonamide] | 2.13 ± 0.04 | 59.5 ± 2.26 | – | – |
| O=S(=O)(Nc1cnc(Oc2cnc3ccccc3c2)c(Cl)c1)c1ccc(C(F)(F)F)cc1Cl [Example 33, 2-Chloro-N-(5-chloro-6-(quinolin-3-yloxy)pyridin-3-yl)-4-(trifluoromethyl)benzene-sulfonamide] | 2.58 ± 0.11 | 68.59 ± 4.81 | – | – |
| O=S(=O)(Nc1cnc(Oc2cnc3ccccc3c2)c(Cl)c1)c1ccc(Cl)c(Cl)c1 [Example 29, 3,4-Dichloro-N-(5-chloro-6-(quinolin-3-yloxy)pyridin-3-yl)benzenesulfonamide] | 2.01 ± 0.09 | 76 ± 6.11 | – | – |
| O=S(=O)(Nc1cnc(Oc2cc3ccccc3cn2)c(Cl)c1)c1ccc(C(F)(F)F)cc1Cl [Example 20, 2-Chloro-N-(5-chloro-6-(isoquinolin-3-yloxy)pyridin-3-yl)-4(trifluoromethyl)benzene sulfonamide] | 2.4 ± 0.68 | 36.7 ± 0.96 | – | – |
| O=S(=O)(Nc1cnc(Oc2cc3ccccc3cn2)c(Cl)c1)c1ccc(F)cc1Cl [Example 15, 2-Chloro-N-(5-chloro-6-(isoquinolin-3-yloxy)pyridin-3-yl)-4-fluorobenzenesulfonamide] | 1.7 ± 0.02 | 45.25 ± 1.04 | 0 | – |
| Cc1ccc(S(=O)(=O)Nc2cnc(Oc3cc4ccccc4cn3)c(Cl)c2)cc1 [Example 16, N-(5-Chloro-6-(isoquinolin-3-yloxy)pyridin-3-yl)-4-methylbenzenesulfonamide] | 1.6 ± 0.13 | 38.47 ± 7.98 | 18.85 | – |
| Cc1ccc(S(=O)(=O)Nc2cnc(Oc3cnc4ccccc4c3)c(Cl)c2)cc1 [Example 28, N-(5-Chloro-6-(quinolin-3-yloxy)pyridin-3-yl)-4-methylbenzenesulfonamide] | 2.6 ± 0.17 | 71.77 ± 7.48 | – | – |
| O=S(=O)(Nc1cnc(Oc2cc3ccccc3cn2)c(Cl)c1)c1ccc(OC(F)(F)F)cc1 [Example 18, N-(5-Chloro-6-(isoquinolin-3-yloxy)pyridin-3-yl)-4-(trifluoromethoxy)benzene-sulfonamide] | 1.77 ± 0.1 | 65 | – | – |
| O=S(=O)(Nc1cnc(Oc2cnc3ccccc3c2)c(Cl)c1)c1ccc(F)cc1 [Example 35, N-(5-Chloro-6-(quinolin-3-yloxy)pyridin-3-yl)-4-fluorobenzenesulfonamide] | 2.44 ± 0.08 | 62.36 ± 3.51 | – | – |
| O=S(=O)(Nc1cnc(Oc2cnc3ccccc3c2)c(Cl)c1)c1ccc(Cl)cc1Cl [Example 27, 2,4-Dichloro-N-(5-chloro-6-(quinolin-3-yloxy)pyridin-3-yl)benzenesulfonamide] | 2.01 ± 0.23 | 57 ± 15.64 | – | – |
| O=S(=O)(Nc1cnc(Oc2cc3ccccc3cn2)c(Cl)c1)c1ccc(Cl)cc1F [Example 13, 4-Chloro-N-(5-chloro-6-(isoquinolin-3-yloxy)pyridin-3-yl)-2-fluorobenzenesulfonamide] | 1.4 ± 0.07 | 19.5 ± 3.51 | – | – |
| COc1ccc(S(=O)(=O)Nc2cnc(Oc3cc4ccccc4cn3)c(Cl)c2)cc1OC [Example 22, N-(5-Chloro-6-(isoquinolin-3-yloxy)pyridin-3-yl)-3,4-dimethoxybenzenesulfonamide] | 1.76 ± 0.58 | 15.8 ± 1.8 | – | – |
| COc1ccc(OC)c(S(=O)(=O)Nc2cnc(Oc3cc4ccccc4cn3)c(Cl)c2)c1 [Example 19, N-(5-Chloro-6-(isoquinolin-3-yloxy)pyridin-3-yl)-2,5-dimethoxybenzenesulfonamide] | 1.67 ± 0.13 | 50 ± 10.12 | – | – |
